Molecular target: CDK7/Cyclin H/MNAT1 (Homo sapiens, UniProt P50613)
Assay: Inhibition of Kinase Activity: Compounds of the invention were assayed for activity against a variety of different kinases.
Format: protein-complex assay

CDK7/Cyclin H/MNAT1, sequence (P51946 whole entry): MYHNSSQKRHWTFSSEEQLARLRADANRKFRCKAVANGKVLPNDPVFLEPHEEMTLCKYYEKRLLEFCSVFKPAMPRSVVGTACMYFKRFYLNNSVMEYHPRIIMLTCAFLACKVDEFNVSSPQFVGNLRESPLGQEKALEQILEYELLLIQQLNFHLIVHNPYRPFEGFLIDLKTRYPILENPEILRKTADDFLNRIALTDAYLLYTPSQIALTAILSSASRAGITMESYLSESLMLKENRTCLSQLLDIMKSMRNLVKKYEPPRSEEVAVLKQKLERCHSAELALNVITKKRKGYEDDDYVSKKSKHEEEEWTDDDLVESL
CDK7/Cyclin H/MNAT1, sequence (P50613 whole entry): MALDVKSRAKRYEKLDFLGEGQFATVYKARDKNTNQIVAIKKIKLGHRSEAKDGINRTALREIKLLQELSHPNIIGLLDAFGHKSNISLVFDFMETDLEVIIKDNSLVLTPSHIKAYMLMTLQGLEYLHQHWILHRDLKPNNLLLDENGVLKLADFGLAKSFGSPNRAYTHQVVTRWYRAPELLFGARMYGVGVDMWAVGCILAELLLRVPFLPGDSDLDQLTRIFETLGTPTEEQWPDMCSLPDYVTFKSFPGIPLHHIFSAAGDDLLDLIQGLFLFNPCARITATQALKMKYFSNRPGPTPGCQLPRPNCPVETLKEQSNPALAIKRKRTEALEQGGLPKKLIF
CDK7/Cyclin H/MNAT1, sequence (P51948 whole entry, further chain): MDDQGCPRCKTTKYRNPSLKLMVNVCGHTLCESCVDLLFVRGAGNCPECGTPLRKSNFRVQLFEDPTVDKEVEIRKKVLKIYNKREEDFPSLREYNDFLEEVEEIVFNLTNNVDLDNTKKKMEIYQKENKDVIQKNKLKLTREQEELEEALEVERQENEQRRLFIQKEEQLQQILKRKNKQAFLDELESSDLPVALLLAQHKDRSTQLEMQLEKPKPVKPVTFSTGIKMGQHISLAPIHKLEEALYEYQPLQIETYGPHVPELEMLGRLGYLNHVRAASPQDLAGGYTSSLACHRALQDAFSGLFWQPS

## C=CC(=O)Nc1ccc(C(=O)Nc2nn(C)c3c2CN(C(=O)NC(C)CN(C)C)C3(C)C)cc1 (stereo unspecified)
  IC50: > 500 nM

Source: ChEMBL document CHEMBL5728191, “Inhibitors of cyclin-dependent kinase 7 (CDK7)” (2020)
